This note sets out measurements from US20230159532A1, “PARATHYROID HORMONE (PTH) RECEPTOR ANTAGONISTS AND USES THEREOF” (Crinetics Pharmaceuticals, Inc., priority 2021, published 2023).

This test has as its target T1, human PTHR1 receptor (Homo sapiens, UniProt Q03431).
T1 construct: purchased Eurofins HTS030M
T1 sequence (Q03431 27-593): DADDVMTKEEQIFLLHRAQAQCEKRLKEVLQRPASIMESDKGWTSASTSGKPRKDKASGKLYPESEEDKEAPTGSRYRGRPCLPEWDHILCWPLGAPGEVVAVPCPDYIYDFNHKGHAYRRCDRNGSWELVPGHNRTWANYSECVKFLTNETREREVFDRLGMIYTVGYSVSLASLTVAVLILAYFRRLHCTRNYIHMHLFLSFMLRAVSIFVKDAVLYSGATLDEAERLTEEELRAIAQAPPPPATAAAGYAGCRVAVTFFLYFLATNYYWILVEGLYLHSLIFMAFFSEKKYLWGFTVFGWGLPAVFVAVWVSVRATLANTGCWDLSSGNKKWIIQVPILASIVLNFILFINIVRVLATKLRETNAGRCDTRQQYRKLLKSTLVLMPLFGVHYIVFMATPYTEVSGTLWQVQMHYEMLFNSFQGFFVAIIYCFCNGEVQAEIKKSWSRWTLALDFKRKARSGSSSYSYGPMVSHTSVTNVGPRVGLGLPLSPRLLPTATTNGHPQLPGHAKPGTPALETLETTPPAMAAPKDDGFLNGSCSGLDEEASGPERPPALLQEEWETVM
Kind of test: Competitive antagonist binding assay for hPTH-R1 (radioactive competition binding, SPA beads). The note with it: human PTHR1 membranes, [125I]-[Nle8,18,Tyr34]-PTH(1-34) 0.2 nM, 90 minutes at room temperature; read-out: hPTHR1 Ki. A digest of the protocol: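 Human PTHR1 membranes on SPA beads incubated 90 min at room temperature with compound (typically 0-10,000 nM final) and 0.2 nM [125I]-[Nle8,18,Tyr34]-PTH(1-34) in HEPES buffer with MgCl2, CaCl2, BSA, Triton X-100 and protease inhibitors, pH 7.4. Scintillation signal read; Ki values derived.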

Consider `Cc1cc(C#N)cc2c1-c1cc(F)cnc1N(C)C(=O)N2c1c(F)cc(NCCNCCO)cc1F` [1-112, 10-[2,6-difluoro-4-({2-[(2-hydroxyethyl)amino]ethyl}amino)phenyl]-4-fluoro-8,15-dimethyl-9-oxo-6,8,10-triazatricyclo[9.4.0.0^2,7]pentadeca-1(11),2(7),3,5,12,14-hexaene-13-carbonitrile], for which the inhibition constant Ki was below 0.1 µM.

With `CNCCNc1cc(F)c(N2C(=O)N(C(C)C)c3ncc(F)cc3-c3c(F)cc(Cl)cc32)c(F)c1` [1-113, 13-chloro-10-(2,6-difluoro-4-{[2-(methylamino)ethyl]amino}phenyl)-4,15-difluoro-8-(propan-2-yl)-6,8,10-triazatricyclo[9.4.0.0^2,7]pentadeca-1(11),2(7),3,5,12,14-hexaen-9-one], the Ki is below 0.1 µM.

As for `CC(C)N1C(=O)N(c2c(F)cc(NCCNCCO)cc2F)c2cc(Cl)cc(F)c2-c2cc(F)cnc21` [1-114, 13-chloro-10-[2,6-difluoro-4-({2-[(2-hydroxyethyl)amino]ethyl}amino)phenyl]-4,15-difluoro-8-(propan-2-yl)-6,8,10-triazatricyclo[9.4.0.0^2,7]pentadeca-1(11),2(7),3,5,12,14-hexaen-9-one], the Ki is below 0.1 µM.

For `CNCCNc1cc(F)c(N2C(=O)N(C)c3ncc(Cl)cc3-c3c(F)cc(C#N)cc32)c(F)c1` [1-115, 4-chloro-10-(2,6-difluoro-4-{[2-(methylamino)ethyl]amino}phenyl)-15-fluoro-8-methyl-9-oxo-6,8,10-triazatricyclo[9.4.0.0^2,7]pentadeca-1(11),2(7),3,5,12,14-hexaene-13-carbonitrile], the Ki is below 0.1 µM.

Turning to `CN1C(=O)N(c2c(F)cc(NCCNCCO)cc2F)c2cc(C#N)cc(F)c2-c2cc(Cl)cnc21` [1-116, 4-chloro-10-[2,6-difluoro-4-({2-[(2-hydroxyethyl)amino]ethyl}amino)phenyl]-15-fluoro-8-methyl-9-oxo-6,8,10-triazatricyclo[9.4.0.0^2,7]pentadeca-1(11),2(7),3,5,12,14-hexaene-13-carbonitrile], the Ki was below 0.1 µM.

Consider `CCCN1C(=O)N(c2c(F)cc(NCCNC)cc2F)c2cc(C#N)ccc2-c2cc(F)cnc21` [1-117, 10-(2,6-difluoro-4-{[2-(methylamino)ethyl]amino}phenyl)-4-fluoro-9-oxo-8-propyl-6,8,10-triazatricyclo[9.4.0.0^2,7]pentadeca-1(11),2(7),3,5,12,14-hexaene-13-carbonitrile], for which the Ki is below 0.1 µM.

In the case of `CCCN1C(=O)N(c2c(F)cc(NCCNCCO)cc2F)c2cc(C#N)ccc2-c2cc(F)cnc21` [1-118, 10-[2,6-difluoro-4-({2-[(2-hydroxyethyl)amino]ethyl}amino)phenyl]-4-fluoro-9-oxo-8-propyl-6,8,10-triazatricyclo[9.4.0.0^2,7]pentadeca-1(11),2(7),3,5,12,14-hexaene-13-carbonitrile], the Ki is below 0.1 µM.

For the compound `CCCN1C(=O)N(c2c(F)cc(NCCNC)cc2F)c2cc(C#N)ccc2-c2cc(Cl)cnc21` [1-119, 4-chloro-10-(2,6-difluoro-4-{[2-(methylamino)ethyl]amino}phenyl)-9-oxo-8-propyl-6,8,10-triazatricyclo[9.4.0.0^2,7]pentadeca-1(11),2(7),3,5,12,14-hexaene-13-carbonitrile], the Ki was below 0.1 µM.

In the case of `CCCN1C(=O)N(c2c(F)cc(NCCNCCO)cc2F)c2cc(C#N)ccc2-c2cc(Cl)cnc21` [1-120, 4-chloro-10-[2,6-difluoro-4-({2-[(2-hydroxyethyl)amino]ethyl}amino)phenyl]-9-oxo-8-propyl-6,8,10-triazatricyclo[9.4.0.0^2,7]pentadeca-1(11),2(7),3,5,12,14-hexaene-13-carbonitrile], the Ki is below 0.1 µM.

On to `CNCCNc1cc(F)c(N2C(=O)N(CCO)c3ncc(F)cc3-c3ccc(C#N)cc32)c(F)c1` [1-121, 10-(2,6-difluoro-4-{[2-(methylamino)ethyl]amino}phenyl)-4-fluoro-8-(2-hydroxyethyl)-9-oxo-6,8,10-triazatricyclo[9.4.0.0^2,7]pentadeca-1(11),2(7),3,5,12,14-hexaene-13-carbonitrile], for which the Ki lay within 0.1 to 1 µM.

As for `CNCCNc1cc(F)c(N2C(=O)N(CCOC)c3ncc(F)cc3-c3ccc(C#N)cc32)c(F)c1` [1-122, 10-(2,6-difluoro-4-{[2-(methylamino)ethyl]amino}phenyl)-4-fluoro-8-(2-methoxyethyl)-9-oxo-6,8,10-triazatricyclo[9.4.0.0^2,7]pentadeca-1(11),2(7),3,5,12,14-hexaene-13-carbonitrile], the Ki is below 0.1 µM.

On to `CCN1C(=O)N(c2c(F)cc(N3CC(CN)C3)cc2F)c2cc(C#N)ccc2-c2cc(F)cnc21` [1-123, 10-{4-[3-(aminomethyl)azetidin-1-yl]-2,6-difluorophenyl}-8-ethyl-4-fluoro-9-oxo-6,8,10-triazatricyclo[9.4.0.0^2,7]pentadeca-1(11),2(7),3,5,12,14-hexaene-13-carbonitrile], for which the Ki is below 0.1 µM.

As to `CCN1C(=O)N(c2c(F)cc(N3CC(NCCO)C3)cc2F)c2cc(C#N)ccc2-c2cc(F)cnc21` [1-124, 10-(2,6-difluoro-4-{3-[(2-hydroxyethyl)amino]azetidin-1-yl}phenyl)-8-ethyl-4-fluoro-9-oxo-6,8,10-triazatricyclo[9.4.0.0^2,7]pentadeca-1(11),2(7),3,5,12,14-hexaene-13-carbonitrile], the inhibition constant (Ki) lay within 0.1 to 1 µM.

In the case of `CCCN1C(=O)N(c2c(F)cc(NCCNCCO)cc2F)c2cc(C#N)cc(F)c2-c2cc(F)cnc21` [1-125, 10-[2,6-difluoro-4-({2-[(2-hydroxyethyl)amino]ethyl}amino)phenyl]-4,15-difluoro-9-oxo-8-propyl-6,8,10-triazatricyclo[9.4.0.0^2,7]pentadeca-1(11),2(7),3,5,12,14-hexaene-13-carbonitrile], the Ki was below 0.1 µM.

Take `CCN1C(=O)N(c2c(F)cc(NCCN)cc2F)c2cc(C#N)ccc2-c2cc(Cl)cnc21` [1-126, 10-{4-[(2-aminoethyl)amino]-2,6-difluorophenyl}-4-chloro-8-ethyl-9-oxo-6,8,10-triazatricyclo[9.4.0.0^2,7]pentadeca-1(11),2(7),3,5,12,14-hexaene-13-carbonitrile]: the Ki was below 0.1 µM.

Turning to `CCN1C(=O)N(c2c(F)cc(NCCNCCNC)cc2F)c2cc(C#N)ccc2-c2cc(Cl)cnc21` [1-127, 4-chloro-10-{2,6-difluoro-4-[(2-{[2-(methylamino)ethyl]amino}ethyl)amino]phenyl}-8-ethyl-9-oxo-6,8,10-triazatricyclo[9.4.0.0^2,7]pentadeca-1(11),2(7),3,5,12,14-hexaene-13-carbonitrile], the inhibition constant Ki is below 0.1 µM.

Take `CCN1C(=O)N(c2c(F)cc(NCCN3CCNC(=O)C3)cc2F)c2cc(C#N)ccc2-c2cc(Cl)cnc21` [1-128, 4-chloro-10-(2,6-difluoro-4-{[2-(3-oxopiperazin-1-yl)ethyl]amino}phenyl)-8-ethyl-9-oxo-6,8,10-triazatricyclo[9.4.0.0^2,7]pentadeca-1(11),2(7),3,5,12,14-hexaene-13-carbonitrile]: the Ki lay in the range of 0.1 to 1 µM.

`CCN1C(=O)N(c2c(F)cc(NCCNCCO)cc2F)c2cc(F)ccc2-c2cc(Cl)cnc21` [1-129, 4-chloro-10-[2,6-difluoro-4-({2-[(2-hydroxyethyl)amino]ethyl}amino)phenyl]-8-ethyl-13-fluoro-6,8,10-triazatricyclo[9.4.0.0^2,7]pentadeca-1(11),2(7),3,5,12,14-hexaen-9-one]: the Ki was below 0.1 µM.

As a reminder, the Ki is the equilibrium dissociation constant of an inhibitor or competing ligand from its target.
